Measured values published in the NIST ThermoML archive (doi:10.1021/je900182h).
Values joined by “and” are separate entries in the source; they are usually repeats but may differ in a detail not shown here. Equal values may be shown once.

Conditions: Crystal

[Br][Ga]([Br])[Br] [gallium bromide]
Conditions	vapor or sublimation pressure
300 K	7.08e-05 kPa
302.5 K	6.31e-05 kPa and 9.55e-05 kPa
303 K	4.79e-05 kPa
304 K	7.24e-05 kPa
304.5 K	8.51e-05 kPa
305 K	7.24e-05 kPa
306.5 K	9.77e-05 kPa
307 K	0.000141 kPa and 9.77e-05 kPa
307.5 K	0.000126 kPa and 9.55e-05 kPa
308 K	0.000126 kPa
309.5 K	0.000145 kPa
310 K	0.00017 kPa and 0.000123 kPa
310.5 K	0.000141 kPa
311 K	0.00024 kPa
311.7 K	0.000263 kPa
312 K	0.000214 kPa
312.5 K	0.00017 kPa
313 K	0.000257 kPa [middle of 4 runs]
313.5 K	0.000219 kPa
314 K	0.00038 kPa
314.5 K	0.000339 kPa and 0.000219 kPa
315 K	0.000339 kPa [middle of 4 runs]
315.5 K	0.000263 kPa
316 K	0.00038 kPa and 0.000245 kPa
316.5 K	0.000288 kPa
317 K	0.000331 kPa and 0.000295 kPa
317.5 K	0.000525 kPa and 0.000339 kPa
318 K	0.00055 kPa
318.5 K	0.000513 kPa and 0.000339 kPa
319.5 K	0.000589 kPa [middle of 4 runs]
320 K	0.000617 kPa and 0.000363 kPa
321 K	0.000851 kPa and 0.000759 kPa
321.5 K	0.000575 kPa
322 K	0.000759 kPa and 0.000912 kPa and 0.000525 kPa
322.5 K	0.000891 kPa and 0.000589 kPa
323 K	0.0011 kPa and 0.000977 kPa and 0.000661 kPa
323.5 K	0.000724 kPa
324 K	0.0011 kPa [middle of 4 runs]
324.5 K	0.000708 kPa
325 K	0.00141 kPa and 0.000724 kPa
325.5 K	0.000813 kPa
326 K	0.00141 kPa and 0.000832 kPa
326.5 K	0.000955 kPa and 0.000832 kPa
327 K	0.00117 kPa and 0.000977 kPa
327.5 K	0.00151 kPa [middle of 4 runs]
328 K	0.00191 kPa and 0.00105 kPa
328.5 K	0.00178 kPa and 0.000977 kPa
329.5 K	0.00148 kPa and 0.00123 kPa
330 K	0.00251 kPa and 0.00141 kPa and 0.00158 kPa
331 K	0.00263 kPa and 0.00257 kPa
331.5 K	0.00204 kPa
332 K	0.00324 kPa and 0.00191 kPa
332.5 K	0.00174 kPa
333 K	0.00214 kPa [middle of 4 runs]
333.5 K	0.00331 kPa and 0.00204 kPa
334 K	0.00398 kPa and 0.00234 kPa
335 K	0.00437 kPa and 0.00417 kPa and 0.00191 kPa
335.5 K	0.00263 kPa
336 K	0.00324 kPa [middle of 4 runs]
337 K	0.00339 kPa
338 K	0.0055 kPa and 0.00363 kPa and 0.00309 kPa
339.5 K	0.00525 kPa
340 K	0.00407 kPa and 0.00427 kPa and 0.00437 kPa
340.5 K	0.00437 kPa
341 K	0.00759 kPa and 0.00427 kPa
342 K	0.00501 kPa
343 K	0.00759 kPa and 0.00589 kPa
343.5 K	0.00603 kPa
344 K	0.00617 kPa
344.5 K	0.00708 kPa
345 K	0.00661 kPa and 0.00676 kPa
346 K	0.00794 kPa [middle of 4 runs]
346.5 K	0.00871 kPa
347 K	0.0135 kPa
348 K	0.00871 kPa and 0.00955 kPa
349 K	0.01 kPa and 0.012 kPa and 0.0105 kPa
350.5 K	0.0115 kPa
351 K	0.0186 kPa and 0.0117 kPa
352 K	0.0145 kPa
354.5 K	0.0174 kPa
357 K	0.0195 kPa
